Where “and” joins values, the source holds several entries; their conditions need not be identical. Equal values may be shown once. Toxic doses and inconclusive results are not listed.
Tested on: L1210 leukemia ip in BDF1 mice, survival T/C
Test: NCI In Vivo Anticancer Drug Screen. Data for tumor model L1210 Leukemia (intraperitoneal) in B6D2F1 (BDF1) mice
Conditions: endpoint: mean survival time, higher = longer survival
Outline: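 Mice bearing the transplanted tumor received compound or vehicle. Survival of the treated group was divided by that of the vehicle-treated control group to give the ratio.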

[1] = dose: 50.0 mg/kg/injection, schedule: Q01DX001 (ip), vehicle: saline
[2] = dose: 100.0 mg/kg/injection, schedule: Q01DX001 (ip), vehicle: saline
[3] = dose: 200.0 mg/kg/injection, schedule: Q01DX001 (ip), vehicle: saline
[4] = dose: 400.0 mg/kg/injection, schedule: Q01DX001 (ip), vehicle: saline
[5] = dose: 50.0 mg/kg/injection, schedule: Q01DX009 (ip), vehicle: saline with Tween-80
[6] = dose: 100.0 mg/kg/injection, schedule: Q01DX009 (ip), vehicle: saline with Tween-80
[7] = dose: 100.0 mg/kg/injection, schedule: Q01DX001 (ip), vehicle: Klucel (hydroxypropylcellulose) (HPC)
[8] = dose: 200.0 mg/kg/injection, schedule: Q01DX001 (ip), vehicle: Klucel (hydroxypropylcellulose) (HPC)
[9] = dose: 400.0 mg/kg/injection, schedule: Q01DX001 (ip), vehicle: Klucel (hydroxypropylcellulose) (HPC)
[10] = dose: 12.5 mg/kg/injection, schedule: Q01DX009 (ip), vehicle: Klucel (hydroxypropylcellulose) (HPC)
[11] = dose: 100.0 mg/kg/injection, schedule: Q01DX001 (ip), vehicle: carboxymethylcellulose (CMC)
[12] = dose: 200.0 mg/kg/injection, schedule: Q01DX001 (ip), vehicle: carboxymethylcellulose (CMC)
[13] = dose: 400.0 mg/kg/injection, schedule: Q01DX001 (ip), vehicle: carboxymethylcellulose (CMC)
[14] = dose: 100.0 mg/kg/injection, schedule: Q04DX002 (ip), vehicle: Klucel (hydroxypropylcellulose) (HPC)
[15] = dose: 200.0 mg/kg/injection, schedule: Q04DX002 (ip), vehicle: Klucel (hydroxypropylcellulose) (HPC)
[16] = dose: 400.0 mg/kg/injection, schedule: Q04DX002 (ip), vehicle: Klucel (hydroxypropylcellulose) (HPC)
[17] = dose: 25.0 mg/kg/injection, schedule: Q01DX009 (ip), vehicle: saline with Tween-80
[18] = dose: 200.0 mg/kg/injection, schedule: Q01DX009 (ip), vehicle: saline with Tween-80
[19] = dose: 400.0 mg/kg/injection, schedule: Q01DX009 (ip), vehicle: saline with Tween-80
[20] = dose: 25.0 mg/kg/injection, schedule: Q04DX003 (ip), vehicle: Klucel (hydroxypropylcellulose) (HPC)
[21] = dose: 50.0 mg/kg/injection, schedule: Q04DX003 (ip), vehicle: Klucel (hydroxypropylcellulose) (HPC)
[22] = dose: 100.0 mg/kg/injection, schedule: Q01DX009 (ip), vehicle: Klucel (hydroxypropylcellulose) (HPC)
[23] = dose: 100.0 mg/kg/injection, schedule: Q04DX003 (ip), vehicle: Klucel (hydroxypropylcellulose) (HPC)
[24] = dose: 200.0 mg/kg/injection, schedule: Q01DX009 (ip), vehicle: Klucel (hydroxypropylcellulose) (HPC)
[25] = dose: 200.0 mg/kg/injection, schedule: Q04DX003 (ip), vehicle: Klucel (hydroxypropylcellulose) (HPC)
[26] = dose: 400.0 mg/kg/injection, schedule: Q01DX009 (ip), vehicle: Klucel (hydroxypropylcellulose) (HPC)
[27] = dose: 400.0 mg/kg/injection, schedule: Q04DX003 (ip), vehicle: Klucel (hydroxypropylcellulose) (HPC)

For `Nc1ccc(OCCCc2c(-c3ccccc3)nc(N)[nH]c2=O)cc1`, the T/C [1] was 93 % of control, the T/C [2] was 96 % of control and the T/C (dose: 100.0 mg/kg/injection, schedule: Q04DX003 (ip), vehicle: saline) was 100 % of control. The T/C [3] was 102 % of control, the T/C (dose: 200.0 mg/kg/injection, schedule: Q04DX003 (ip), vehicle: saline) was 96 % of control and the T/C [4] was 102 % of control. For the same molecule, the T/C (dose: 400.0 mg/kg/injection, schedule: Q04DX003 (ip), vehicle: saline) was 90 % of control.
With `C=CCCC1CC(C(C)C)CC2(C1)OCCO2` (stereo not given) the T/C [5] was 96 % of control and the T/C [6] was 96 % of control.
With `Cc1c(Cl)c(CCl)c(Cl)c(CCl)c1Cl` the T/C [7] was 94 % of control, the T/C [8] was 92 % of control and the T/C [9] was 89 % of control.
With `CC[N+](C)(CC)CCSC(=O)Nc1ccc(Cc2ccc(NC(=O)SCC[N+](C)(CC)CC)cc2)cc1` the T/C (dose: 10.0 mg/kg/injection, schedule: Q04DX003 (ip), vehicle: Klucel (hydroxypropylcellulose) (HPC)) was 96 % of control, the T/C [10] was 103 % of control and the T/C (dose: 20.0 mg/kg/injection, schedule: Q04DX003 (ip), vehicle: Klucel (hydroxypropylcellulose) (HPC)) was 96 % of control.
For `c1ccc(Oc2nnc3c4ccccc4ccn23)cc1`, the T/C [11] was 98 % of control, the T/C [12] was 98 % of control and the T/C [13] was 98 % of control.
For `N#CCCN(C(=O)Nc1ccc(Cl)c(Cl)c1)C1CCCCC1`, the T/C [14] was 107 % of control, the T/C [15] was 100 % of control and the T/C [16] was 111 % of control.
`Cc1cc(NC(=O)Nc2ccc(Cl)cc2Cl)no1` was tested, and the T/C (dose: 12.5 mg/kg/injection, schedule: Q01DX009 (ip), vehicle: saline with Tween-80) was 95 % of control, the T/C [17] was 91 % of control and the T/C [5] was 91 % of control and 92 % of control. The T/C [6] was 95 % of control and the T/C [18] was 95 % of control.
In the case of `O=[N+]([O-])c1cccc(C=Nc2cc(Cl)ccc2Cl)c1`, the T/C (dose: 75.0 mg/kg/injection, schedule: Q04DX003 (ip), vehicle: Klucel (hydroxypropylcellulose) (HPC)) is reported as 106 % of control, the T/C [7] is reported as 101 % of control and the T/C (dose: 150.0 mg/kg/injection, schedule: Q04DX003 (ip), vehicle: Klucel (hydroxypropylcellulose) (HPC)) is reported as 95 % of control. For the same molecule, the T/C [8] was 107 % of control, the T/C (dose: 300.0 mg/kg/injection, schedule: Q04DX003 (ip), vehicle: Klucel (hydroxypropylcellulose) (HPC)) was 98 % of control and the T/C [9] was 102 % of control.
`Nc1nc(N)nc(CC(=O)O)n1` was tested, and the T/C (dose: 50.0 mg/kg/injection, schedule: Q01DX001 (ip), vehicle: carboxymethylcellulose (CMC)) was 95 % of control, the T/C [11] was 90 % of control and the T/C [12] was 95 % of control. For the same molecule, the T/C [13] was 93 % of control.
For `c1ccc(-c2n[nH]c(-c3ccccn3)n2)nc1`, the T/C (dose: 6.25 mg/kg/injection, schedule: Q01DX009 (ip), vehicle: Klucel (hydroxypropylcellulose) (HPC)) was 97 % of control and the T/C [10] was 112 % of control.
`COc1ccc(Cl)cc1NC(=O)Oc1ccc2ccccc2c1` was tested, and the T/C (dose: 100.0 mg/kg/injection, schedule: Q01DX001 (ip), vehicle: saline with Tween-80) was 89 % of control, the T/C [6] was 98 % of control and 100 % of control and the T/C (dose: 100.0 mg/kg/injection, schedule: Q04DX003 (ip), vehicle: saline with Tween-80) was 91 % of control. For the same molecule, the T/C (dose: 200.0 mg/kg/injection, schedule: Q01DX001 (ip), vehicle: saline with Tween-80) was 100 % of control, the T/C [18] was 98 % of control and 92 % of control and the T/C (dose: 200.0 mg/kg/injection, schedule: Q04DX003 (ip), vehicle: saline with Tween-80) was 96 % of control. The T/C (dose: 400.0 mg/kg/injection, schedule: Q01DX001 (ip), vehicle: saline with Tween-80) was 96 % of control, the T/C [19] was 100 % of control and 91 % of control and the T/C (dose: 400.0 mg/kg/injection, schedule: Q04DX003 (ip), vehicle: saline with Tween-80) was 103 % of control.
`CN(CCO)/N=N/c1nc[nH]c1C(N)=O` was tested, and the T/C [11] was 107 % of control, the T/C [12] was 113 % of control and the T/C [13] was 107 % of control. The T/C (dose: 400.0 mg/kg/injection, schedule: Q01DX009 (ip), vehicle: carboxymethylcellulose (CMC)) was 169 % of control and the T/C (dose: 800.0 mg/kg/injection, schedule: Q01DX009 (ip), vehicle: carboxymethylcellulose (CMC)) was 92 % of control.
For `C/C=C/C(C#N)Nc1ccccc1C(N)=O` (stereo not given), the T/C (dose: 12.5 mg/kg/injection, schedule: Q04DX003 (ip), vehicle: Klucel (hydroxypropylcellulose) (HPC)) was 91 % of control, the T/C (dose: 25.0 mg/kg/injection, schedule: Q01DX009 (ip), vehicle: Klucel (hydroxypropylcellulose) (HPC)) was 104 % of control and the T/C [20] was 96 % of control. For the same molecule, the T/C (dose: 50.0 mg/kg/injection, schedule: Q01DX009 (ip), vehicle: Klucel (hydroxypropylcellulose) (HPC)) was 103 % of control, the T/C [21] was 102 % of control and the T/C [22] was 95 % of control. For the same molecule, the T/C [23] was 94 % of control.
For `CCN(Cc1ccccc1)C(=O)NC(C)(C)C`, the T/C [22] was 98 % of control and the T/C [24] was 95 % of control.
For `COc1cc(/C=N/Nc2nnc(N/N=C/c3cc(I)c(O)c(OC)c3)c3ccccc23)cc(I)c1O`, the T/C [1] was 95 % of control, the T/C [2] was 95 % of control and the T/C [3] was 101 % of control. The T/C [4] was 97 % of control.
For `Cc1ccc(S(=O)(=O)N/N=C\c2cc(Cl)ccc2O)cc1`, the T/C [22] was 105 % of control, the T/C [23] was 100 % of control and the T/C [24] was 100 % of control. For the same molecule, the T/C [25] was 103 % of control, the T/C [26] was 103 % of control and the T/C [27] was 100 % of control.
In the case of `COc1cc(NC(=O)Oc2ccc([N+](=O)[O-])cc2)ccc1S(=O)(=O)F`, the T/C [6] is reported as 94 % of control, the T/C [18] is reported as 103 % of control and the T/C [19] is reported as 103 % of control.
For `CC(=O)Oc1c(C)cc([N+](=O)[O-])cc1[N+](=O)[O-]`, the T/C [20] was 91 % of control and the T/C [21] was 86 % of control.
In the case of `NNC(=O)c1cccnc1`, the T/C (dose: 12.5 mg/kg/injection, schedule: Q01DX009 (ip), vehicle: saline) is reported as 94 % of control, the T/C (dose: 25.0 mg/kg/injection, schedule: Q01DX001 (ip), vehicle: saline) is reported as 100 % of control and the T/C (dose: 25.0 mg/kg/injection, schedule: Q01DX009 (ip), vehicle: saline) is reported as 104 % of control. The T/C [1] was 105 % of control, the T/C (dose: 50.0 mg/kg/injection, schedule: Q01DX009 (ip), vehicle: saline) was 98 % of control and the T/C [2] was 102 % of control and 104 % of control. For the same molecule, the T/C (dose: 100.0 mg/kg/injection, schedule: Q01DX009 (ip), vehicle: saline) was 105 % of control.
With `Nc1nc(N)c(N=Nc2ccc(S(=O)(=O)Nc3ccccn3)cc2)c(N)n1` the T/C [2] was 101 % of control and the T/C [3] was 95 % of control.
With `CCC(CO)NC(=O)/C=C/c1cc(OC)ccc1OC` (stereo not given) the T/C (dose: 150.0 mg/kg/injection, schedule: Q04DX003 (ip), vehicle: saline with Tween-80) was 111 % of control, the T/C (dose: 300.0 mg/kg/injection, schedule: Q04DX003 (ip), vehicle: saline with Tween-80) was 102 % of control and the T/C (dose: 600.0 mg/kg/injection, schedule: Q04DX003 (ip), vehicle: saline with Tween-80) was 109 % of control.
In the case of `CC(C)(C)OC(=O)NC(CC(=O)O)C(=O)O` (stereo not given), the T/C [17] is reported as 99 % of control, the T/C [5] is reported as 89 % of control and the T/C [6] is reported as 101 % of control and 117 % of control. For the same molecule, the T/C [14] was 90 % of control, the T/C [18] was 96 % of control and the T/C [15] was 101 % of control. The T/C [19] was 91 % of control and the T/C [16] was 101 % of control.
`CCCCCCCCOC(=O)c1ccc2nc3cc4ccccc4cc3nc2c1` was tested, and the T/C [14] was 94 % of control, the T/C [15] was 92 % of control and the T/C [16] was 92 % of control.
For `Cc1ccc(Cl)cc1NC(=O)c1ccc(Cl)cc1Cl`, the T/C [22] was 110 % of control, the T/C [23] was 92 % of control and the T/C [24] was 91 % of control. The T/C [25] was 95 % of control, the T/C [26] was 89 % of control and the T/C [27] was 88 % of control.
